PubChem BioAssay (NCI)
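In this assay, cells in 96-well plates receive the compound at five concentrations for 48 hours. Endpoints are linearly interpolated between the surrounding concentrations. At the TGI there is no net growth.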

Experiments:
Assay in all cases: DTP human tumour cell line panel, 48 h
[1] = tested on: NCI-H522 lung
[2] = tested on: SNB-19 CNS
[3] = tested on: HCT-15 colon
[4] = tested on: OVCAR-8 ovarian
[5] = tested on: PC-3 prostate
[6] = tested on: DU-145 prostate
[7] = tested on: NCI-H226 lung
[8] = tested on: BT-549 breast
[9] = tested on: ACHN renal
[10] = tested on: SNB-75 CNS
[11] = tested on: HS 578T breast
[12] = tested on: NCI-H23 lung
[13] = tested on: CAKI-1 renal
[14] = tested on: SK-OV-3 ovarian
[15] = tested on: SF-268 CNS
[16] = tested on: HCT-116 colon
[17] = tested on: COLO 205 colon
[18] = tested on: SN12C renal
[19] = tested on: LOX IMVI melanoma
[20] = tested on: TK-10 renal
[21] = tested on: A549 NSCLC
[22] = tested on: HOP-62 NSCLC
[23] = tested on: UACC-62 melanoma
[24] = tested on: NCI-H460 lung
[25] = tested on: MDA-N
[26] = tested on: SK-MEL-28 melanoma
[27] = tested on: SF-295 CNS
[28] = tested on: IGROV1 ovarian
[29] = tested on: SF-539 CNS
[30] = tested on: HCC-2998 colon
[31] = tested on: KM12 colon
[32] = tested on: U251 CNS
[33] = tested on: HT29 colon
[34] = tested on: NCI/ADR-RES ovarian
[35] = tested on: MDA-MB-435
[36] = tested on: HL-60(TB) leukemia
[37] = tested on: CCRF-CEM leukemia
[38] = tested on: UACC-257 melanoma
[39] = tested on: OVCAR-5 ovarian
[40] = tested on: T-47D breast
[41] = tested on: RPMI-8226 leukemia
[42] = tested on: UO-31 renal
[43] = tested on: SR leukemia
[44] = tested on: SK-MEL-5 melanoma
[45] = tested on: SW-620 colon
[46] = tested on: MOLT-4 leukemia
[47] = tested on: OVCAR-4 ovarian
[48] = tested on: 786-0 renal
[49] = tested on: M14 melanoma
[50] = tested on: OVCAR-3 ovarian
[51] = tested on: SK-MEL-2 melanoma
[52] = tested on: MDA-MB-231 breast

Nc1n[n+]([O-])c2cnccc2[n+]1[O-] was tested, and the TGI [1] was > 100 µM, the TGI [2] was > 100 µM and the TGI [3] was > 100 µM. The TGI [4] was > 100 µM, the TGI [5] was > 100 µM and the TGI [6] was > 100 µM. The TGI [7] was > 100 µM, the TGI [8] was > 100 µM and the TGI [9] was > 100 µM. The TGI [10] was > 100 µM, the TGI [11] was > 100 µM and the TGI [12] was > 100 µM. The TGI [13] was > 100 µM, the TGI [14] was > 100 µM and the TGI [15] was > 100 µM. The TGI [16] was > 100 µM, the TGI [17] was > 100 µM and the TGI [18] was > 100 µM. The TGI [19] was > 100 µM, the TGI [20] was > 100 µM and the TGI [21] was > 100 µM. For the same molecule, the TGI [22] was > 100 µM, the TGI [23] was 84.9 µM and the TGI [24] was > 100 µM. For the same molecule, the TGI [25] was 36.6 µM, the TGI [26] was > 100 µM and the TGI [27] was > 100 µM. For the same molecule, the TGI [28] was > 100 µM, the TGI [29] was > 100 µM and the TGI [30] was > 100 µM. For the same molecule, the TGI [31] was > 100 µM, the TGI [32] was > 100 µM and the TGI [33] was > 100 µM. The TGI [34] was > 100 µM, the TGI [35] was 38.5 µM and the TGI [36] was 47.7 µM. The TGI [37] was > 100 µM, the TGI [38] was 77.9 µM and the TGI [39] was > 100 µM. For the same molecule, the TGI [40] was > 100 µM, the TGI [41] was > 100 µM and the TGI [42] was > 100 µM. For the same molecule, the TGI [43] was > 100 µM, the TGI [44] was 30 µM and the TGI [45] was > 100 µM. For the same molecule, the TGI [46] was > 100 µM, the TGI [47] was > 100 µM and the TGI [48] was > 100 µM. The TGI [49] was > 100 µM, the TGI [50] was > 100 µM and the TGI [51] was > 100 µM. The TGI [52] was > 100 µM.
